# Data: paper PMC11994961, “In Vivo pharmacokinetic interactions of ribociclib with rivaroxaban and apixaban in rats: implications for increased drug exposure and dose adjustments” (Frontiers in Pharmacology, 2025)
# Experiments:
# [1] = system: Abcb1a (P-gp) mRNA in the intestines; experiment: qRT-PCR mRNA expression in rat intestine after ribociclib; type: in vivo; conditions: rats, ribociclib continuously for 8 days
# From the text: (§1) qRT-PCR analysis was used to determine the mRNA levels of Cyp3a1(CYP3A4) in the liver and Abcb1a (P-gp), Cyp3a1(CYP3A4), Abcg2(BCRP) in the intestines. Total RNA was extracted from frozen liver and intestine samples using the TRNzol Universal reagent, following the manufacturer’s instructions. The Bio Tek Epoch (Bio Tek Instruments, Inc., Winooski, VT, United States) was used to quantify the purity and concentration of the total RNA, based on the ratio of the absorbance at 260 and 280 nm. The RNA samples, each containing 1 µg of material, were converted to complementary DNA (cDNA) using the FastKing RT Kit. The real-time PCR assays were performed using a two-step amplification protocol on the SLAN-96S Real-Time PCR system (Shanghai Hongshi Medical Technology Co., Ltd., Shanghai, China). […] was employed as an internal control, and the PCR cycling criteria were as follows: 95°C for 15 min, followed by 40 cycles of 95°C for 10 s and 60°C for 32 s.
# [2] = system: Abcg2(BCRP) mRNA in the intestines; experiment: as above; type: in vivo; conditions: rats, ribociclib continuously for 8 days
# From the text: as §1
# [3] = system: Cyp3a1(CYP3A4) mRNA in the intestines; experiment: as above; type: in vivo; conditions: rats, ribociclib continuously for 8 days
# From the text: as §1
# [4] = system: Cyp3a1(CYP3A4) mRNA in the liver; experiment: qRT-PCR mRNA expression in rat liver after ribociclib; type: in vivo; conditions: rats, ribociclib continuously for 8 days
# From the text: as §1
# [5] = Stability of ribociclib QC samples in rat plasma; type: in vitro ADME; conditions: room temperature, autosampler 15°C, −80°C, three freeze-thaw cycles
# Procedure: The method was validated per the guidelines of the Food and Drug Administration (US-FDA, 2022) and Chinese Pharmacopoeia (2020). Selectivity was determined by analyzing blank plasma samples from six different batches of rats and plasma samples from six different batches of rats after administration of ribociclib. There should be no interference, with retention times such that the blank plasma peak area is less than 5% of the internal standard (IS) and less than 20% of the lower limit of quantification (LLOQ). The calibration curves were evaluated using 10–4,000 ng/mL of ribociclib. Linearity was assessed by plotting the peak area ratios of the analyte to the IS against nominal concentrations, using weighted (1/x^2) least-squares linear regression. Accuracy and precision were determined for all concentrations derived from the calibration curves, ensuring that deviations were within 15% of the nominal concentration, except for the LLOQ, where the deviation should not exceed 20%. Precision and accuracy were assessed by analyzing plasma samples at low, medium, high, and LLOQ concentration levels over three consecutive days. The final precision and accuracy were determined by calculating the relative standard deviation (RSD) and relative error (RE) of the six samples. RSD and RE for QC concentrations were required to be within ±15%, and for the LLOQ, within ±20%. […]
structure (smiles),measurement,setting,value
"CN(C)C(=O)c1cc2cnc(Nc3ccc(N4CCNCC4)cn3)nc2n1C1CCCC1 [RIBO, ribociclib]",mRNA expression of Abcb1a in the intestine,[1],no significant changes
same,inhibition rate of intestinal Abcg2 mRNA expression,[2],45.0%
same,inhibition rate of intestinal Cyp3a1 mRNA expression,[3],82.6%
same,mRNA expression of Cyp3a1 in the liver,[4],no significant changes
same,stability of QC samples,[5],excellent stability
